Assay: recombinant UMI read abundance after kanamycin selection (control-corrected) (log10(CPM+1)); higher = more efficient recombination; extreme values may be limits of the assay; sequences stand for … in AGTGCAGAGAAAATCGGCCAGTTTTCTCTGCCTGCAGTCCGCATGCCGTGGGACCCCTTGGGTTCTAACCTGTTGCCTAGATTTATGCAGCGGACTGCCTTTCTCCCAAAGTGATAAACCGG…AGGTTGGTTTCACT; site = the 11-nt donor
Method in brief: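 Counts of recombinant UMIs were reported as log10(CPM+1). Before that, they were converted to CPM, averaged over replicates and scaled using control-derived factors. They came from PCR across the donor–target junction after Escherichia coli carrying the pair library and target plasmid was plated on IPTG (0.07 mM) plus kanamycin, or unselected, in two replicates each.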
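Also: IS621 bridge recombinase in Escherichia coli cells against a fixed T5 target plasmid.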

Row | Sequence | recombinant UMI read abundance (log10)
1 | ATCTTCCCATGGACCGGTTTTCCCGGTAATCCGTATTTGCA (site ATCTTCCCTTG) | 0.523
2 | ATCTTTACATGGACCGGTTTTCCCGGTAATCCGTATTTGAC (site ATCTATACTGT) | 0.832
3 | ATCTTTACATGGACCGGTTTTCCCGGTAATCCGTATTTGAC (site ATCTCTACTGT) | 0
4 | ATCTTTACATGGACCGGTTTTCCCGGTAATCCGTATTTGAC (site ATCTGTACTGT) | 0.247
5 | ATCTTTACATGGACCGGTTTTCCCGGTAATCCGTATTTGAC (site ATCTTTACTGT) | 0.661
6 | ATGAACACATGGACCGGTTTTCCCGGTAATCCGTATTTGTG (site ATGAACACTCA) | 1.96
7 | ATGACATCATGGACCGGTTTTCCCGGTAATCCGTATTTGAT (site ATGACATCTAT) | 2.14
8 | ATGACGGCATGGACCGGTTTTCCCGGTAATCCGTATTTGAG (site ATGACGGCTCT) | 1.39
9 | ATGACTCCATGGACCGGTTTTCCCGGTAATCCGTATTTGGA (site ATGACTCCTTC) | 0.437
10 | ATGACTGCATGGACCGGTTTTCCCGGTAATCCGTATTTGCG (site ATGACTGCTCG) | 1.7
11 | ATGAGCGCATGGACCGGTTTTCCCGGTAATCCGTATTTGGG (site ATGAGCGCTCC) | 0.00562
12 | ATGAGGACATGGACCGGTTTTCCCGGTAATCCGTATTTGCT (site ATGAGGACTAG) | 2.89
13 | ATGATATCATGGACCGGTTTTCCCGGTAATCCGTATTTGCA (site ATGATATCTTG) | 2.39
14 | ATGATCTCATGGACCGGTTTTCCCGGTAATCCGTATTTGCG (site ATGATCTCTCG) | 3.11
15 | ATGCAAACATGGACCGGTTTTCCCGGTAATCCGTATTTGGA (site ATGCAAACTTC) | 1.69
16 | ATGCAGACATGGACCGGTTTTCCCGGTAATCCGTATTTGTT (site ATGCAGACTAA) | 1.92
17 | ATGCCATCATGGACCGGTTTTCCCGGTAATCCGTATTTGCA (site ATGCCATCTTG) | 1.98
18 | ATGCGTTCATGGACCGGTTTTCCCGGTAATCCGTATTTGGG (site ATGCGTTCTCC) | 1.05
19 | ATGGAAACATGGACCGGTTTTCCCGGTAATCCGTATTTGCG (site ATGGAAACTCG) | 2.39

Row | Sequence | recombinant UMI read abundance (log10)
20 | ATGGAGACATGGACCGGTTTTCCCGGTAATCCGTATTTGTA (site ATGGAGACTTA) | 2.41
21 | ATGGAGACATGGACCGGTTTTCCCGGTAATCCGTATTTGTG (site ATGGAGACTCA) | 1.96
22 | ATGGAGGCATGGACCGGTTTTCCCGGTAATCCGTATTTGGC (site ATGAAGGCTGC) | 2.07
23 | ATGGAGGCATGGACCGGTTTTCCCGGTAATCCGTATTTGGC (site ATGCAGGCTGC) | 1.03
24 | ATGGAGGCATGGACCGGTTTTCCCGGTAATCCGTATTTGGC (site ATGGAGGCTGC) | 2.53
25 | ATGGAGGCATGGACCGGTTTTCCCGGTAATCCGTATTTGGC (site ATGTAGGCTGC) | 1.48
26 | ATGGAGGCATGGACCGGTTTTCCCGGTAATCCGTATTTGTG (site ATGGAGGCTCA) | 1.11
27 | ATGGAGGCATGGACCGGTTTTCCCGGTAATCCGTATTTGTG (site CTGGAGGCTCA) | 0.764
28 | ATGGAGGCATGGACCGGTTTTCCCGGTAATCCGTATTTGTG (site GTGGAGGCTCA) | 0.0176
29 | ATGGAGGCATGGACCGGTTTTCCCGGTAATCCGTATTTGTG (site TTGGAGGCTCA) | 0.765
30 | ATGGCTACATGGACCGGTTTTCCCGGTAATCCGTATTTGGG (site ATGGCTACTCC) | 0.356
31 | ATGTAAGCATGGACCGGTTTTCCCGGTAATCCGTATTTGGC (site ATGTAAGCTGC) | 3.24
32 | ATGTAAGCATGGACCGGTTTTCCCGGTAATCCGTATTTGGC (site ATGTACGCTGC) | 0.982
33 | ATGTAAGCATGGACCGGTTTTCCCGGTAATCCGTATTTGGC (site ATGTAGGCTGC) | 2.04
34 | ATGTAAGCATGGACCGGTTTTCCCGGTAATCCGTATTTGGC (site ATGTATGCTGC) | 0
35 | ATGTACGCATGGACCGGTTTTCCCGGTAATCCGTATTTGGT (site ATGTACGCTAC) | 1.42
36 | ATGTAGGCATGGACCGGTTTTCCCGGTAATCCGTATTTGCC (site ATGTAGGCTGA) | 1.76
37 | ATGTAGGCATGGACCGGTTTTCCCGGTAATCCGTATTTGCC (site ATGTAGGCTGC) | 0
